Measurements: article PMC9571093, “Synthesis and Characterization of Novel Hydrazone Derivatives of Isonicotinic Hydrazide and Their Evaluation for Antibacterial and Cytotoxic Potential” (Molecules, 2022)
Converted amounts (≈) assume the structure as drawn.

Assays:
[1] = system: Escherichia coli ATCC 10536; experiment: Paper disc diffusion, zone of inhibition; type: cell-based; conditions: ATCC10536, disc with 1000 µg mL−1 in DMSO, 37 °C, 24 h
Protocol: (§1) All the synthesized compounds were screened for antibacterial activities using minimum inhibitory concentrations (MIC) and zone of inhibitions against Gram (+)and Gram (−) bacterial strains. ATCC strains of the test microorganism selected for antibacterial assay were Gram-positive bacteria; Staphylococcus aureus ATCC 25923, Bacillus subtilus ATCC 11774, and Gram-negative bacteria; Escherichia coli ATCC 10536. The bacterial strains’ stock cultures were kept in Nutrient agar (Oxoid, UK) at 4 °C and inocula were prepared by transferring several single colonies of microbes to a sterile Mueller Hinton broth. The bacterial cell suspension was mixed until homogeneity to give a final density of 5 × 10^5 cfu/mL
(§2) Preliminary screenings of synthesized compounds were conducted on agar plates using the disc diffusion method. The plates were prepared using Mueller–Hinton agar following the autoclave process (121 °C for 30 min). After cooling, the plates were inoculated with the suspension of microorganisms (S. aureus, B. subtilis and E. coli). The paper discs impregnated with the test compounds (1000 µg mL^−1 in dimethyl sulfoxide) were placed on the solidified medium and incubated at 37 °C for 24 hours before recording the zone of inhibition in millimeters.

[2] = system: Bacillus subtilis ATCC 11774; experiment: Paper disc diffusion, zone of inhibition; type: cell-based; conditions: disc with 1000 µg mL−1 in DMSO, 37 °C; for zone of inhibition at 1000 µg/mL: Bacillus subtilis, ATCC11774, 24 h
Protocol: as §1, §2

[3] = system: Staphylococcus aureus ATCC 25923; experiment: Paper disc diffusion, zone of inhibition; type: cell-based; conditions: disc with 1000 µg mL−1 in DMSO, 37 °C; for zone of inhibition at 1000 µg/mL: Staphylococcus aureus, ATCC25923, 24 h
Protocol: as §1, §2

E. coli ATCC 10536 = experiment: Tetrazolium (MTT) microplate assay of minimum inhibitory concentration; type: cell-based; conditions: Escherichia coli, ATCC10536
Protocol: as §1
(§3) The minimum inhibitory concentrations of test microorganisms and reference material were determined using the tetrazolium microplate assay method. The assay was performed using a 96-well clear microtiter plate. Freshly harvested bacterial cell and fungal cell suspensions were seeded at 5 × 10^5 cfu/mL in each well of the 96-well plate. Different concentrations, 500 to 10 µg/mL, of the test compounds were diluted in series with Muller–Hinton broth. A volume of 200 µL of each concentration was added in triplicate to the wells and the plates were then incubated for 18–24 h at 37 °C ± 0.5. After incubation, in each well, 50 µL of 3-(4, 5-dimethylthiazol-2-yl)-2, 5-diphenyltetrazolium bromide MTT, having a concentration of 0.2 mg/mL, was added and the plate was incubated at 37 °C for 30 min. An appropriate solvent blank (DMSO) was included as the negative control and the bacterial suspension was included as the positive control. The absorbance was measured at 570 nm with a reference wavelength of 650 nm by adding DMSO using a spectrophotometer and the percentage reduction of the dye (indicating the bacterial growth inhibition) was calculated.

B. subtilis ATCC 11774 = experiment: as above; type: cell-based; conditions: Bacillus subtilis, ATCC11774
Protocol: as §1, §3

S. aureus ATCC 25923 = experiment: as above; type: cell-based; conditions: Staphylococcus aureus, ATCC25923
Protocol: as §1, §3

[4] = Brine shrimp lethality bioassay; type: in vivo, Artemia salina; conditions: Artemia salina (brine shrimp) nauplii, in vivo, other: exposure in sea water containing the compound, 24 h incubation, regression analysis, read-out: LC50 (median lethal concentration)
Protocol: (§4) The cytotoxicities of synthesized hydrazones were recorded by employing an in vitro brine shrimp lethality bioassay technique. The eggs of Artemia salina (brine shrimp) were allowed to incubate at 30 °C for 48 h under a light and dark cycle using artificial sea water before subjecting them to the sample solutions. The hatched larvae (nauplii) were collected with using a Pasteur pipette and were transferred to freshly prepared sea water (commercial salt and double-distilled water). The stock solutions of each compound were prepared at 500 µg/mL concentration in DMSO and sea water at 1:1, and further serial dilutions of 25, 50, 100, 200 and 300 µg/mL were prepared using sea water. Using a 2mL volume from each dilution, sea water containing 10 nauplii was added to a test tube and incubated for 24 h. A solvent mixture with nauplii containing no test compound was used as the control. After due time, the number of nauplii that survived was determined using a magnifying glass. The experiment was performed in triplicate and the median lethal concentration (LC50) ± SEM was calculated using regression analysis.

[5] = system: Artemia salina (brine shrimp) nauplii; experiment: Brine shrimp lethality bioassay; type: in vivo; conditions: 24 h, concentration not given
Protocol: as §4

Structure (SMILES)	zone of inhibition at 1000 µg/mL [1]	zone of inhibition at 1000 µg/mL [2]	zone of inhibition at 1000 µg/mL [3]	inhibition at 25 µg/mL (E. coli ATCC 10536)	inhibition at 50 µg/mL (E. coli ATCC 10536)	inhibition at 100 µg/mL (E. coli ATCC 10536)	inhibition at 200 µg/mL (E. coli ATCC 10536)	inhibition at 25 µg/mL (B. subtilis ATCC 11774)	inhibition at 50 µg/mL (B. subtilis ATCC 11774)	inhibition at 100 µg/mL (B. subtilis ATCC 11774)	inhibition at 200 µg/mL (B. subtilis ATCC 11774)	inhibition at 25 µg/mL (S. aureus ATCC 25923)	inhibition at 50 µg/mL (S. aureus ATCC 25923)	inhibition at 100 µg/mL (S. aureus ATCC 25923)	inhibition at 200 µg/mL (S. aureus ATCC 25923)	inhibition at 300 µg/mL (B. subtilis ATCC 11774)	inhibition at 400 µg/mL (B. subtilis ATCC 11774)	inhibition at 300 µg/mL (E. coli ATCC 10536)	inhibition at 300 µg/mL (S. aureus ATCC 25923)	inhibition at 400 µg/mL (S. aureus ATCC 25923)	other results
NCC[C@H](O)C(=O)N[C@@H]1C[C@H](N)[C@@H](O[C@H]2O[C@H](CN)[C@@H](O)[C@H](O)[C@H]2O)[C@H](O)[C@H]1O[C@H]1O[C@H](CO)[C@@H](O)[C@H](N)[C@H]1O [Amikacin, reference compound]	38 mm	30 mm	24 mm																		
CC1(C)S[C@@H]2[C@H](NC(=O)[C@H](N)c3ccc(O)cc3)C(=O)N2[C@H]1C(=O)O [Amoxicillin, reference compound]				40 ± 0.5%	66 ± 0.5%	85 ± 0.6%	96 ± 1%														IC50 (E. coli ATCC 10536; E. coli, concentration inhibiting 66 ± 0.5%): 50 µg/mL (≈ 137 µM)
CO/N=C(\C(=O)N[C@@H]1C(=O)N2C(C(=O)O)=C(CSc3nc(=O)c(=O)[nH]n3C)CS[C@H]12)c1csc(N)n1 [Ceftriaxone, reference compound]								40 ± 0.5%	55 ± 0.7%	79 ± 1.2%	92 ± 1.2%	30 ± 0.8%	55 ± 0.3%	80 ± 1.2%	96 ± 1%						IC50 (B. subtilis ATCC 11774; B. subtilis, concentration inhibiting 55 ± 0.7%): 50 µg/mL (≈ 90.2 µM); minimum inhibitory concentration (S. aureus ATCC 25923; S. aureus, concentration inhibiting 55 ± 0.3%, read-out: IC50): 50 µg/mL (≈ 90.2 µM)
COc1cc(/C=N/NC(=O)c2ccncc2)ccc1OCC(=O)OC(C)(C)C [NH1, Tert-butyl (E)-2-(4-((2-Isonicotinoylhydrazineylidene)methyl)-2-methoxyphenoxy) Acetate]	25 mm	14 mm	24 mm	9 ± 0.5%	18 ± 0.5%	40 ± 0.4%	60 ± 0.5%		5 ± 0.3%	26 ± 0.3%	44 ± 0.4%		10 ± 0.6%	25 ± 0.7%	55 ± 1%	60 ± 0.5%	75 ± 0.5%	79 ± 1%	63 ± 1%	69 ± 2%	inhibition at 500 µg/mL (S. aureus ATCC 25923; 500 µg/mL): 80 ± 1.5%; Zone of Inhibition ([3]; 24 h): 20 mm
CC(C)(C)OC(=O)COc1ccc(/C=N/NC(=O)c2ccncc2)cc1 [NH2, Tert-butyl (E)-2-(4-((2-Isonicotinoylhydrazineylidene)methyl)phenoxy) Acetate]	14 mm	14 mm	15 mm			10 ± 0.3%	25 ± 0.3%	4 ± 0.2%	12 ± 0.3%	22 ± 0.3%	44 ± 0.5%	11 ± 1%	21 ± 1.2%	42 ± 2%	50 ± 2%	60 ± 0.5%	81 ± 0.6%	55 ± 0.5%	63 ± 1.5%	74 ± 2%	inhibition at 400 µg/mL (E. coli ATCC 10536; 400 µg/mL): 70 ± 0.3%
COc1cc(/C=N/NC(=O)c2ccncc2)ccc1OCC=C(C)C [NH3, (E)-N′-(3-Methoxy-4-((3-methylbut-2-en-1-yl)oxy)benzylidene)isonicotinohydrazide]	33 mm	23 mm	24 mm		36 ± 0.5%	50 ± 0.5%	65 ± 0.2%	12 ± 0.4%	20 ± 0.7%	28 ± 0.8%	53 ± 0.7%	24 ± 0.7%	35 ± 1.2%	44 ± 2%	60 ± 1.5%	74 ± 0.9%	84 ± 0.9%	85 ± 1.2%	78 ± 1%	89 ± 1.5%	LC50 at 24 h [4]: 240 µg/mL (≈ 707 µM); Zone of Inhibition ([2]; 24 h): 22 mm
CC(C)=CCOc1ccc(/C=N/NC(=O)c2ccncc2)cc1 [NH4, (E)-N′-(4-((3-Methylbut-2-en-1-yl)oxy)benzylidene)isonicotinohydrazide]	21 mm	23 mm	20 mm		5 ± 0.5%	25 ± 0.5%	54 ± 0.4%	10 ± 0.7%	18 ± 0.6%	29 ± 0.8%	50 ± 1.1%	16 ± 0.5%	24 ± 1%	38 ± 1.5%	55 ± 0.9%	68 ± 1%	77 ± 0.8%	75 ± 0.8%	71 ± 2%	89 ± 1.5%	
CCCOc1ccc(/C=N/NC(=O)c2ccncc2)cc1OC [NH5, (E)-N′-(3-Methoxy-4-propoxybenzylidene) isonicotinohydrazide]	24 mm	25 mm	22 mm	10 ± 0.6%	18 ± 0.6%	34 ± 0.3%	58 ± 0.6%		10 ± 0.5%	26 ± 0.5%	53 ± 0.6%	5 ± 0.4%	12 ± 0.4%	35 ± 0.7%	58 ± 1.1%	73 ± 0.8%		79 ± 0.8%	77 ± 1.5%		minimum survival percentage [5]: 36.10 ± 3.45%
CCCOc1ccc(/C=N/NC(=O)c2ccncc2)cc1 [NH6, (E)-N′-(4-Propoxybenzylidene) Isonicotinohydrazide]	22 mm	23 mm	17 mm	5 ± 0.2%	14 ± 0.5%	28 ± 0.5%	50 ± 0.7%		10 ± 0.6%	23 ± 0.7%	52 ± 0.8%		5.5 ± 0.5%	25 ± 0.5%	52 ± 1.6%	70 ± 1.1%		73 ± 0.7%	72 ± 1.2%	80 ± 1%	LC50 at 24 h [4]: 162 µg/mL (≈ 574 µM); minimum survival percentage [5]: 32.44 ± 2.0%
